From patent US20250066395A1, “Detecting and Separating Rare Earth Metal Mixtures” (Board of Regents, The University of Texas System, priority 2023, published 2025)

Excerpt: We have selected water and ethyl acetate (EtOAc) for their “green solvent” properties of being safe to handle, eco-friendly, little to no hazardous waste, etc.

| Soluble in water | Substance |
| --- | --- |
| soluble | scandium |
| soluble | yttrium |
